{"source": "patent US9718819B2", "about": "(Merck Sharp & Dohme Corp., priority 2012, dated 2017)"}
{"biological_target": "HIV-1 RT wild-type enzyme (Human immunodeficiency virus type 1 group M subtype B (isolate HXB2) (HIV-1), UniProt P04585)", "experiment": "HIV-1 reverse transcriptase inhibitory activity (RT polymerase assay)", "assay_type": "biochemical", "details": "HIV-1 RT wild-type enzyme 83 pM; RNA-dependent DNA polymerase activity; read-out: IC50", "experimental": "Determination of HIV-1 Reverse Transcriptase Inhibitory Activity\nThe heterodimeric nucleic acid substrate used in the HIV-1 RT polymerase reactions was generated by annealing the DNA primer, biotinylated pD500 (Sigma Aldrich, USA, 5′-biotin-ttg aaa tga ctg cgg tac ggc-3′), SEQ ID NO. 1 to the nucleotide RNA template t500 (derived from hepatitis C virus [HCV] sequence, IBA, Germany, 5′-[…]-3′), SEQ ID NO 2). […] The mixture was then preincubated on an orbital shaker for 30 min at room temperature in microtiter plates (Costar 3365, Corning, USA). A polymerization reaction was initiated by the addition of RNA template/pD500 DNA primer hybrid (16.6 nM final of RNA/DNA hybrid) and dNTPs (2 μM dATP, dGTP, dCTP and 66.6 nM Ru-dUTP (Meso Scale Discovery, USA)). Plate was sealed and incubated for 5-10 min at room temperature on an orbital shaker. Plate was then incubated for 90 min at 37° C. and reactions quenched with 60 μl quenching buffer (50 mM EDTA, 0.7% BSA, 0.7% Tween-20, 0.017% sodium azide in PBS). The resulting solution was incubated at room temperature for an additional 5 min and then 50 μL was transferred to pre-blocked Avidin plates (L15AA, Meso Scale Discovery). Each well of Avidin plate was blocked for 1 h at room temperature with 100 μL 5% BSA in PBS. Blocking solution was removed by tapping vigorously on filter paper to remove all excess liquid. Reaction on pre-blocked avidin plate proceeded for 60 min at room temperature and then contents removed by tapping vigorously on filter paper to remove all excess liquid. After washing plate 3 times with 150 μL 1×PBS and blotting dry between cycles, 150 μL 1× Read Buffer T (4× Read Buffer T, Meso Scale Discovery) was added and incubated for 5 min at room temperature before counting on a Sector Imager […] (Meso Scale Discovery). Titration curves and IC50 values were calculated using a four parameter logisitc fit according to standard procedures. Briefly, % Inhibition=100×((sample raw value)−(mean value of the low control or 0% inhibition))/((mean value of wells representing 100% inhbition)−(mean value of 0% inhbition)). In this assay, low control wells contain DMSO (0% inhbition) and 100% inhibition wells contain 1 μM efavirenz.", "units": {"IC50": "µM"}}
{"compound": "N#Cc1cc(Cl)cc(Oc2c(C(F)(F)F)ncn(Cc3cc(-c4ccc(F)c(F)c4F)c(=O)[nH]n3)c2=O)c1", "note": "[Example 62, 3-chloro-5-((6-oxo-1-((6-oxo-5-(2,3,4-trifluorophenyl)-1,6-dihydropyridazin-3-yl)methyl)-4-(trifluoromethyl)-1,6-dihydropyrimidin-5-yl)oxy)benzonitrile]", "IC50": 0.01}
{"compound": "N#Cc1cc(Cl)cc(Oc2c(C(F)(F)F)ncn(Cc3cnc(OCC(F)(F)F)[nH]c3=O)c2=O)c1", "note": "[Example 139, 3-Chloro-5-{6-oxo-1-[6-oxo-2-(2,2,2-trifluoro-ethoxy)-1,6-dihydro-pyrimidin-5-ylmethyl]-4-trifluoromethyl-1,6-dihydro-pyrimidin-5-yloxy}-benzonitrile]", "IC50": 0.045}
{"compound": "CN(C)c1cc(Cn2cnc(C(F)(F)F)c(Oc3cc(Cl)cc(C#N)c3)c2=O)n[nH]c1=O", "note": "[Example 92, 3-chloro-5-((1-((5-(dimethylamino)-6-oxo-1,6-dihydropyridazin-3-yl)methyl)-6-oxo-4-(trifluoromethyl)-1,6-dihydropyrimidin-5-yl)oxy)benzonitrile]", "IC50": 0.006}
{"compound": "N#Cc1cc(Cl)cc(Oc2c(C(F)(F)F)ncn(Cc3cc(-c4ccn[nH]4)c(=O)[nH]n3)c2=O)c1", "note": "[Example 65, 3-chloro-5-((6-oxo-1-((6-oxo-5-(1H-pyrazol-5-yl)-1,6-dihydropyridazin-3-yl)methyl)-4-(trifluoromethyl)-1,6-dihydropyrimidin-5-yl)oxy)benzonitrile]", "IC50": 0.005}
{"compound": "N#Cc1cc(Cl)cc(Oc2c(C(F)(F)F)ncn(Cc3cc(-c4cc(F)ccc4F)c(=O)[nH]n3)c2=O)c1", "note": "[Example 48, 3-chloro-5-((1-((5-(2,5-difluorophenyl)-6-oxo-1,6-dihydropyridazin-3-yl)methyl)-6-oxo-4-(trifluoromethyl)-1,6-dihydropyrimidin-5-yl)oxy)benzonitrile]", "IC50": 0.009}
{"compound": "N#Cc1cc(Cl)cc(Oc2c(C(F)(F)F)ncn(Cc3cc(-c4cccc(F)c4Cl)c(=O)[nH]n3)c2=O)c1", "note": "[Example 41, 3-chloro-5-((1-((5-(2-chloro-3-fluorophenyl)-6-oxo-1,6-dihydropyridazin-3-yl)methyl)-6-oxo-4-(trifluoromethyl)-1,6-dihydropyrimidin-5-yl)oxy)benzonitrile]", "IC50": 0.059}
{"compound": "N#Cc1cc(Cl)cc(Oc2c(C(F)(F)F)ncn(Cc3cc(-c4cccc(Cl)c4)c(=O)[nH]n3)c2=O)c1", "note": "[Example 36, 3-chloro-5-((1-((5-(3-chlorophenyl)-6-oxo-1,6-dihydropyridazin-3-yl)methyl)-6-oxo-4-(trifluoromethyl)-1,6-dihydropyrimidin-5-yl)oxy)benzonitrile]", "IC50": 0.004}
{"compound": "Cn1cc(Cn2cnc(C(F)(F)F)c(Oc3cc(Cl)cc(C#N)c3)c2=O)ncc1=O", "note": "[Example 3, 3-chloro-5-((1-((4-methyl-5-oxo-4,5-dihydropyrazin-2-yl)methyl)-6-oxo-4-(trifluoromethyl)-1,6-dihydropyrimidin-5-yl)oxy)benzonitrile]", "IC50": 0.033}
{"compound": "CC(F)(F)c1ncn(Cc2cc(C(F)F)n[nH]c2=O)c(=O)c1Oc1cccc(C#N)c1F", "note": "[Example 177, 3-((4-(1,1-difluoroethyl)-1-((6-(difluoromethyl)-3-oxo-2,3-dihydropyridazin-4-yl)methyl)-6-oxo-1,6-dihydropyrimidin-5-yl)oxy)-2-fluorobenzonitrile]", "IC50": 0.017}
{"compound": "Cc1ccc(F)c(-c2cc(Cn3cnc(C(F)(F)F)c(Oc4cc(Cl)cc(C#N)c4)c3=O)n[nH]c2=O)c1", "note": "[Example 39, 3-chloro-5-((1-((5-(2-fluoro-5-methylphenyl)-6-oxo-1,6-dihydropyridazin-3-yl)methyl)-6-oxo-4-(trifluoromethyl)-1,6-dihydropyrimidin-5-yl)oxy)benzonitrile]", "IC50": 0.01}
{"compound": "CN(C)c1ncc(Cn2cnc(C(F)(F)F)c(Oc3cc(Cl)cc(C#N)c3)c2=O)c(=O)[nH]1", "note": "[Example 141, 3-Chloro-5-[1-(2-dimethylamino-6-oxo-1,6-dihydro-pyrimidin-5-ylmethyl)-6-oxo-4-trifluoromethyl-1,6-dihydro-pyrimidin-5-yloxy]-benzonitrile]", "IC50": 0.013}
{"compound": "N#Cc1cc(Cl)cc(Oc2c(C(F)(F)F)ncn(Cc3cc(-c4cccc5c4OCC5)c(=O)[nH]n3)c2=O)c1", "note": "[Example 57, 3-chloro-5-((1-((5-(2,3-dihydrobenzofuran-7-yl)-6-oxo-1,6-dihydropyridazin-3-yl)methyl)-6-oxo-4-(trifluoromethyl)-1,6-dihydropyrimidin-5-yl)oxy)benzonitrile]", "IC50": 0.011}
{"compound": "Cc1ccc(F)cc1-c1cc(Cn2cnc(C(F)(F)F)c(Oc3cc(Cl)cc(C#N)c3)c2=O)n[nH]c1=O", "note": "[Example 50]", "IC50": 0.165}
{"compound": "N#Cc1cc(Cl)cc(Oc2c(C(F)(F)F)ncn(Cc3cc(-c4ccc(C(O)C(F)F)cc4)c(=O)[nH]n3)c2=O)c1", "note": "(stereo not drawn) [Example 69, 3-chloro-5-((1-((5-(4-(2,2-difluoro-1-hydroxyethyl)phenyl)-6-oxo-1,6-dihydropyridazin-3-yl)methyl)-6-oxo-4-(trifluoromethyl)-1,6-dihydropyrimidin-5-yl)oxy)benzonitrile]", "IC50": 0.01}
{"compound": "N#Cc1cc(Cl)cc(Oc2c(C(F)(F)F)ncn(Cc3cnc(-c4ccccc4)[nH]c3=O)c2=O)c1", "note": "[Example 149, 3-chloro-5-((6-oxo-1-((6-oxo-2-phenyl-1,6-dihydropyrimidin-5-yl)methyl)-4-(trifluoromethyl)-1,6-dihydropyrimidin-5-yl)oxy)benzonitrile]", "IC50": 0.014}
{"compound": "N#Cc1cc(Cl)cc(Oc2c(C(F)(F)F)ncn(Cc3cc(-n4cccn4)c(=O)[nH]n3)c2=O)c1", "note": "[Example 93, 3-chloro-5-((6-oxo-1-((6-oxo-5-(1H-pyrazol-1-yl)-1,6-dihydropyridazin-3-yl)methyl)-4-(trifluoromethyl)-1,6-dihydropyrimidin-5-yl)oxy)benzonitrile]", "IC50": 0.011}
{"compound": "N#Cc1cc(Cl)cc(Oc2c(C(F)(F)F)ncn(Cc3cc(-c4ccc(F)nc4)c(=O)[nH]n3)c2=O)c1", "note": "[Example 78, 3-chloro-5-((1-((5-(6-fluoropyridin-3-yl)-6-oxo-1,6-dihydropyridazin-3-yl)methyl)-6-oxo-4-(trifluoromethyl)-1,6-dihydropyrimidin-5-yl)oxy)benzonitrile]", "IC50": 0.006}
{"compound": "Cc1ncn(Cc2cc(C(C)(F)F)n[nH]c2=O)c(=O)c1Oc1cc(Cl)cc(C#N)c1", "note": "[Example 181, 3-chloro-5-((1-((6-(1,1-difluoroethyl)-3-oxo-2,3-dihydropyridazin-4-yl)methyl)-4-methyl-6-oxo-1,6-dihydropyrimidin-5-yl)oxy)benzonitrile]", "IC50": 0.012}
{"compound": "N#Cc1cc(Cl)cc(Oc2c(C(F)(F)F)ncn(Cc3cc(-c4cccc(F)c4)c(=O)[nH]n3)c2=O)c1", "note": "[Example 26, 3-chloro-5-((1-((5(3-fluorophenyl)-6-oxo-1,6-dihydropyridazin-3-yl)methyl)-6-oxo-4-(trifluoromethyl)-1,6-dihydropyrimidin-5-yl)oxy)benzonitrile]", "IC50": 0.005}
{"compound": "CC(F)(F)c1ncn(Cc2cc(-c3ccc(F)cc3)c(=O)[nH]n2)c(=O)c1Oc1cccc(C#N)c1F", "note": "[Example 171, 3-((4-(1,1-difluoroethyl)-1-((5-(4-fluorophenyl)-6-oxo-1,6-dihydropyridazin-3-yl)methyl)-6-oxo-1,6-dihydropyrimidin-5-yl)oxy)-2-fluorobenzonitrile]", "IC50": 0.003}
{"compound": "Cc1cc(-c2cc(Cn3cnc(C(F)(F)F)c(Oc4cc(Cl)cc(C#N)c4)c3=O)n[nH]c2=O)ccc1F", "note": "[Example 37, 3-chloro-5-((1-((5-(4-fluoro-3-methylphenyl)-6-oxo-1,6-dihydropyridazin-3-yl)methyl)-6-oxo-4-(trifluoromethyl)-1,6-dihydropyrimidin-5-yl)oxy)benzonitrile]", "IC50": 0.005}
{"compound": "O=c1ccc(Cn2cnc(C(F)(F)F)c(Oc3cc(Cl)cc(C(F)(F)F)c3)c2=O)n[nH]1", "note": "[Example 21, 6-((5-(3-chloro-5-(trifluoromethyl)phenoxy)-6-oxo-4-(trifluoromethyl)pyrimidin-1(6H)-yl)methyl)pyridazin-3(2H)-one]", "IC50": 0.029}
{"compound": "N#Cc1cc(Cl)cc(Oc2c(C(F)(F)F)ncn(Cc3cc(-c4cncc(C#N)c4)c(=O)[nH]n3)c2=O)c1", "note": "[Example 84, 5-(6-((5-(3-chloro-5-cyanophenoxy)-6-oxo-4-(trifluoromethyl)pyrimidin-1(6H)-yl)methyl)-3-oxo-2,3-dihydropyridazin-4-yl)nicotinonitrile]", "IC50": 0.027}
{"compound": "CC(C)(C)c1ccc(-c2cc(Cn3cnc(C(F)(F)F)c(Oc4cc(Cl)cc(C#N)c4)c3=O)n[nH]c2=O)cc1", "note": "[Example 53, 3-((1-((5-(4-(tert-butyl)phenyl)-6-oxo-1,6-dihydropyridazin-3-yl)methyl)-6-oxo-4-(trifluoromethyl)-1,6-dihydropyrimidin-5-yl)oxy)-5-chlorobenzonitrile]", "IC50": 0.07}
